This note sets out measurements from EP1247803A2, “Indolinone compounds suitable for modulation of protein kinases” (Sugen, Inc., priority 1996, dated 1998).

One experiment deals with T1, EGFR (Homo sapiens, UniProt P00533).
T1 construct: Add 7 ug A431 cell lysate per well (EGFR source); endogenous in cells; host or cells: A431
The experiment in a line: EGFR ELISA assay (in vitro kinase activity, EGFR captured from A431 cell lysate). In kind it is biochemical. Set-up: concentration or dose not given beside the values. Summed up: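 Receptor autophosphorylation was read by ELISA: anti-phosphotyrosine serum and an HRP-linked secondary with ABTS substrate, absorbance at 410 nm (reference 630 nm). The reaction ran 5 min with 3 µM ATP and 5 mM MnCl2 and was quenched by 20 mM EDTA. Compounds were first incubated 30 min with antibody-captured EGFR from A431 cell lysate.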

In the next experiment the target is PDGF-R (Homo sapiens, UniProt P09619). The experiment in a line: PDGF-R ELISA. In kind it is cell-based. The text has this: A PDGF-R ELISA is described in International Patent Publication No. WO 96/40116, published December 19, 1996 by Tang et al.
Chain of PDGF-R (P09619 33-1106, species assumed): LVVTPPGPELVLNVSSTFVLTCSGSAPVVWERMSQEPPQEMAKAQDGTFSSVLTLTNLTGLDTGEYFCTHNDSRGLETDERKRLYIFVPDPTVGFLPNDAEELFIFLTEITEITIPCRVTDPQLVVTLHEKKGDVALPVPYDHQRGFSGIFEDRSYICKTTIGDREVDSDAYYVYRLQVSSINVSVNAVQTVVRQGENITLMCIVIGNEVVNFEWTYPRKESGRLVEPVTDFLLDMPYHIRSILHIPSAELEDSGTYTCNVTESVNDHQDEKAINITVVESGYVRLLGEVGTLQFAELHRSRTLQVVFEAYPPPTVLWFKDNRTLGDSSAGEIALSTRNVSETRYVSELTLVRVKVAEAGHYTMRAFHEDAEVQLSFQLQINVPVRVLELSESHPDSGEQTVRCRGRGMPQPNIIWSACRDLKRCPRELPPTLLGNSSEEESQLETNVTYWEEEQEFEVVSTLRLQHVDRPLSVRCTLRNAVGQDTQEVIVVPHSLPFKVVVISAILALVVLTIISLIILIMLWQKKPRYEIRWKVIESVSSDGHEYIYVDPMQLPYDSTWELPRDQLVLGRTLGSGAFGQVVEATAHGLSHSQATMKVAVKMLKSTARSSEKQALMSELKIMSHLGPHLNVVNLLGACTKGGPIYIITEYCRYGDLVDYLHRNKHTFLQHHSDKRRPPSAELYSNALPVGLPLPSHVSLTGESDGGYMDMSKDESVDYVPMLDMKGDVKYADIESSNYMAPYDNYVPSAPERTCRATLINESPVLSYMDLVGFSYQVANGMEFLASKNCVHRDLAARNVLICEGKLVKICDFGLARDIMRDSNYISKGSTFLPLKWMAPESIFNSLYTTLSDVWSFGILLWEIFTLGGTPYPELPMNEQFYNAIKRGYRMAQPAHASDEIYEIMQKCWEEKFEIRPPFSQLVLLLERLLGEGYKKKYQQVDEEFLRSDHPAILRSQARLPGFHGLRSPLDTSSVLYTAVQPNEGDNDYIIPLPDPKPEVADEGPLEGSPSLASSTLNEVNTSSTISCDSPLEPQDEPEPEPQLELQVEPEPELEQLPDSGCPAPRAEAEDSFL

T1 sequence (P00533 25-1210): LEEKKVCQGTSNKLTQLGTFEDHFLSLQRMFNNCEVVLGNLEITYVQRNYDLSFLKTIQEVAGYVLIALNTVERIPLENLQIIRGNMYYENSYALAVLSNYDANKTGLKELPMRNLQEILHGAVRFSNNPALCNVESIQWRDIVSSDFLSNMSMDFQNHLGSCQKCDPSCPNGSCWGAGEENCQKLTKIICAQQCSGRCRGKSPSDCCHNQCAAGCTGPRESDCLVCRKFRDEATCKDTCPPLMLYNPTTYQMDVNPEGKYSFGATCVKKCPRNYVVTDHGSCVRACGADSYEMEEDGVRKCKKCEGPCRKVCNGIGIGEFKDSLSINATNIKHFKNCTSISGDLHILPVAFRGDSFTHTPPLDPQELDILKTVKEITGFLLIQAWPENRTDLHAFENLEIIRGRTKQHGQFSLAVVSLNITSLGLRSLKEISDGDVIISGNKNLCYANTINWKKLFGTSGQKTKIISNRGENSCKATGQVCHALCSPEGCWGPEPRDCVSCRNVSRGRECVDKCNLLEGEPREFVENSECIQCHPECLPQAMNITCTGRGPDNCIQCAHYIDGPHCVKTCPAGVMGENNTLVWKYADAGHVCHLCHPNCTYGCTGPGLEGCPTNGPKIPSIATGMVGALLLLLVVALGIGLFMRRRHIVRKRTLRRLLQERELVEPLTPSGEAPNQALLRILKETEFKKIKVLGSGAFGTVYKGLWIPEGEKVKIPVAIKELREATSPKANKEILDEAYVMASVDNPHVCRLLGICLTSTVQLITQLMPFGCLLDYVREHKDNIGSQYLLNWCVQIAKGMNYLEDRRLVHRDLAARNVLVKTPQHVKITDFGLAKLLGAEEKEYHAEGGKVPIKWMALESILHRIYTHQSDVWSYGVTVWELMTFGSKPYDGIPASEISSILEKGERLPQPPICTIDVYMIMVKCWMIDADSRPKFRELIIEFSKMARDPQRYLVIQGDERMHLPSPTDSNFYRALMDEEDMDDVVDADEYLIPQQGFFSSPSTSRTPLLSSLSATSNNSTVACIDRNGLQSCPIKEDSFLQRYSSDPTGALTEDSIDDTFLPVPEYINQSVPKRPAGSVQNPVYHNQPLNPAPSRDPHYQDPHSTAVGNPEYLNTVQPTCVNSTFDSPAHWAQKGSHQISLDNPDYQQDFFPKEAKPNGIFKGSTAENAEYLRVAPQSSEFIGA

Take `O=C1Nc2c(Br)cc(Br)cc2C1=Cc1coc2ccccc2c1=O` [10727/A07]: the “Biochem EGFR %Inhibition” value at EGFR is -3.7%. Moreover, the “PDGF Kinase %Inhibition” value on PDGF-R is on record as 12.3%.
For the molecule `N#Cc1cccc(C=C2C(=O)Nc3c(Br)cc(Br)cc32)c1` [10727/A08], at EGFR, the “Biochem EGFR %Inhibition” value stood at 9.7%. Further, the “PDGF Kinase %Inhibition” value on PDGF-R amounted to 15.2%.
Take `N#Cc1ccc(C=C2C(=O)Nc3c(Br)cc(Br)cc32)cc1` [10727/A09]: the “Biochem EGFR %Inhibition” value on EGFR came out at 12.7%. Also, the “PDGF Kinase %Inhibition” value at PDGF-R stood at 16.6%.
In the case of `O=C1Nc2c(Br)cc(Br)cc2C1=Cc1cc(O)ccc1O` [10727/A10], the “Biochem EGFR %Inhibition” value on EGFR is listed as 89.0%. For the same molecule, the “PDGF Kinase %Inhibition” value on PDGF-R is listed as 18.1%.
In the case of `COc1cccc(C=C2C(=O)Nc3c(Br)cc(Br)cc32)c1OC` [10727/A11], the “Biochem EGFR %Inhibition” value on EGFR is 6.2%. Further, the “PDGF Kinase %Inhibition” value on PDGF-R is on record as 10.8%.
Regarding `CCN(CC)c1ccc(C=C2C(=O)Nc3ccc(I)cc32)cc1` [10727/B02], the “Biochem EGFR %Inhibition” value at EGFR is recorded as -18.4%. In addition, the “PDGF Kinase %Inhibition” value at PDGF-R is listed as -10.3%.
For `CCc1cc(CC)c(C=C2C(=O)Nc3ccc(I)cc32)[nH]1` [10727/B03], the “Biochem EGFR %Inhibition” value at EGFR is -2.8%. For the same molecule, the “PDGF Kinase %Inhibition” value on PDGF-R is -7.4%.
For `O=C1Nc2ccc(I)cc2C1=Cc1cc(Cl)cc(Br)c1O` [10727/B04], in that order: 47.4% and 21.0%.
For the molecule `O=C1Nc2ccc(I)cc2C1=Cc1ccccc1Sc1ccc(Cl)cc1` [10727/B05], the “Biochem EGFR %Inhibition” value at EGFR was 39.0%. For the same molecule, at PDGF-R, the “PDGF Kinase %Inhibition” value was determined as 9.4%.
As to `O=C1Nc2ccc(I)cc2C1=Cc1cc2c(cc1Cl)OCO2` [10727/B06], on EGFR, the “Biochem EGFR %Inhibition” value is reported as 40.7%. Moreover, the “PDGF Kinase %Inhibition” value on PDGF-R worked out at 6.4%.
As to `O=C1Nc2ccc(I)cc2C1=Cc1coc2ccccc2c1=O` [10727/B07], on EGFR, the “Biochem EGFR %Inhibition” value is on record as 46.5%. For the same molecule, the “PDGF Kinase %Inhibition” value on PDGF-R worked out at 0.6%.
For the molecule `N#Cc1cccc(C=C2C(=O)Nc3ccc(I)cc32)c1` [10727/B08], the “Biochem EGFR %Inhibition” value on EGFR is given as 47.4%. Further, the “PDGF Kinase %Inhibition” value on PDGF-R was found to be 14.4%.
Consider `N#Cc1ccc(C=C2C(=O)Nc3ccc(I)cc32)cc1` [10727/B09], for which the “Biochem EGFR %Inhibition” value on EGFR was 31.7%. In addition, on PDGF-R, the “PDGF Kinase %Inhibition” value is listed as 18.1%.
With `O=C1Nc2ccc(I)cc2C1=Cc1cc(O)ccc1O` [10727/B10], the “Biochem EGFR %Inhibition” value at EGFR stood at 94.0%. Moreover, the “PDGF Kinase %Inhibition” value at PDGF-R is given as 29.7%.
Regarding `COc1cccc(C=C2C(=O)Nc3ccc(I)cc32)c1OC` [10727/B11], the “Biochem EGFR %Inhibition” value at EGFR came to 6.9%. Besides, the “PDGF Kinase %Inhibition” value on PDGF-R was found to be 15.9%.
The corresponding values for `CCN(CC)c1ccc(C=C2C(=O)Nc3ccc(Br)c(C)c32)cc1` [10727/C02] are -28.5% and -12.5%.
On to `CCc1cc(CC)c(C=C2C(=O)Nc3ccc(Br)c(C)c32)[nH]1` [10727/C03], for which the “Biochem EGFR %Inhibition” value on EGFR is recorded as 14.6%. Also, the “PDGF Kinase %Inhibition” value on PDGF-R is on record as 11.5%.
On to `Cc1c(Br)ccc2c1C(=Cc1cc(Cl)cc(Br)c1O)C(=O)N2` [10727/C04], for which the “Biochem EGFR %Inhibition” value on EGFR is recorded as 27.6%. Besides, the “PDGF Kinase %Inhibition” value on PDGF-R was determined as 23.2%.
Consider `Cc1c(Br)ccc2c1C(=Cc1ccccc1Sc1ccc(Cl)cc1)C(=O)N2` [10727/C05], for which, at EGFR, the “Biochem EGFR %Inhibition” value is listed as 11.8%. In addition, the “PDGF Kinase %Inhibition” value at PDGF-R is recorded as 7.9%.
Take `Cc1c(Br)ccc2c1C(=Cc1cc3c(cc1Cl)OCO3)C(=O)N2` [10727/C06]: on EGFR, the “Biochem EGFR %Inhibition” value was 5.6%. In addition, at PDGF-R, the “PDGF Kinase %Inhibition” value was 12.3%.
For the molecule `Cc1c(Br)ccc2c1C(=Cc1coc3ccccc3c1=O)C(=O)N2` [10727/C07], at EGFR, the “Biochem EGFR %Inhibition” value was 8.4%. Moreover, on PDGF-R, the “PDGF Kinase %Inhibition” value is 13.0%.
In the case of `Cc1c(Br)ccc2c1C(=Cc1cccc(C#N)c1)C(=O)N2` [10727/C08], the “Biochem EGFR %Inhibition” value at EGFR came to 3.6%. Also, the “PDGF Kinase %Inhibition” value on PDGF-R worked out at 23.2%.
The corresponding values for `Cc1c(Br)ccc2c1C(=Cc1ccc(C#N)cc1)C(=O)N2` [10727/C09] are 16.6% and 21.7%.
As for `Cc1c(Br)ccc2c1C(=Cc1cc(O)ccc1O)C(=O)N2` [10727/C10], the “Biochem EGFR %Inhibition” value on EGFR was 85.3%. For the same molecule, at PDGF-R, the “PDGF Kinase %Inhibition” value is 45.7%.
`COc1cccc(C=C2C(=O)Nc3ccc(Br)c(C)c32)c1OC` [10727/C11]: the “Biochem EGFR %Inhibition” value on EGFR was -15.6%. Further, the “PDGF Kinase %Inhibition” value on PDGF-R is on record as 22.4%.
For `CCN(CC)c1ccc(C=C2C(=O)Nc3ccc(S(=O)(=O)NC)cc32)cc1` [10727/D02], in that order: 22.6% and 5.7%.
For the molecule `CCc1cc(CC)c(C=C2C(=O)Nc3ccc(S(=O)(=O)NC)cc32)[nH]1` [10727/D03], the “Biochem EGFR %Inhibition” value on EGFR is 39.4%. Besides, at PDGF-R, the “PDGF Kinase %Inhibition” value is listed as -3.0%.
